ChEMBL document CHEMBL1155565, “Apramides A-G, novel lipopeptides from the marine cyanobacterium Lyngbya majuscula” (J Nat Prod, 2000)
In brackets after ≈: the same amount, converted by molar mass. Activity calls are given as the source filed them. The rule behind the calls is not given here. Square brackets hold non-standard residues; d marks the D form. Peptide text beside a SMILES is read from it. * marks the point of attachment. Octanoyl(2R-Me,7,8-dehydro) = C=CCCCC[C@@H](C)C(=O)*; Oct7ynoyl(2R-Me) = C#CCCCC[C@@H](C)C(=O)*; NMeY = CN[C@@H](Cc1ccc(O)cc1)C(=O)O; Oct(7)ynoyl = C#CCCCCCC(=O)*; NMeV = CN[C@H](C(=O)O)C(C)C; X2 = c1csc([C@@H]2CCCN2*)n1; NMeA = CN[C@@H](C)C(=O)O; X1 = CN(Cc1nccs1)*

Experiments:
KB = assay: Cytotoxicity against human KB cells; format: functional, cell-based
LoVo = assay: Cytotoxicity against human LoVo cells; format: functional, cell-based
[1] = target: Prothrombin (Homo sapiens) (UniProt P00734); assay: Inhibition of thrombin
[2] = Inhibition of trypsin
Papain (Carica papaya) = target: T1, Papain (Carica papaya) (UniProt P00784); assay: Inhibition of Papaya papain
T1 sequence (whole entry): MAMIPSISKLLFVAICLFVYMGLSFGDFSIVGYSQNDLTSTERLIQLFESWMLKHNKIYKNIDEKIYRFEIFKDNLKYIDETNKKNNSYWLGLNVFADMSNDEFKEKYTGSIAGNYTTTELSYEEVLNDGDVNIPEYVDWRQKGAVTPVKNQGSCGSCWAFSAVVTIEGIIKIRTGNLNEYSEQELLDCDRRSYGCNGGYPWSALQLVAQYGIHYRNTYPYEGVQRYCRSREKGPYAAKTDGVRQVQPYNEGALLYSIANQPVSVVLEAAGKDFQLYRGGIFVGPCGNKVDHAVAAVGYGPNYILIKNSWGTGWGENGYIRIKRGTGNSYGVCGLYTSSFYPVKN

[3] = Inhibition of chymotrypsin
[4] = Induction of elastase activity
[5] = Inhibition of elastase

Compound | Activity (KB) | Activity (LoVo) | other results
C=CCCCC[C@@H](C)C(=O)N(C)[C@@H](C)C(=O)N(C)[C@H](C(=O)N1CCC[C@H]1C(=O)N(C)[C@H](C(=O)N(C)[C@H](C(=O)N(C)[C@@H](Cc1ccc(OC)cc1)C(=O)N(C)Cc1nccs1)C(C)C)C(C)C)C(C)C ({Octanoyl(2R-Me,7,8-dehydro)}-[NMeA][NMeV]P[NMeV][NMeV][NMeY](Me)-X1) | inactive | inactive | 
C#CCCCC[C@@H](C)C(=O)N(C)[C@@H](C)C(=O)N(C)[C@H](C(=O)N1CCC[C@H]1C(=O)N(C)[C@H](C(=O)N(C)[C@H](C(=O)N(C)[C@@H](Cc1ccc(OC)cc1)C(=O)N1CCC[C@H]1c1nccs1)C(C)C)C(C)C)C(C)C ({Oct7ynoyl(2R-Me)}-[NMeA][NMeV]P[NMeV][NMeV][NMeY](Me)-X2) | inactive | inactive | 
C#CCCCC[C@@H](C)C(=O)N(C)[C@@H](C)C(=O)N(C)[C@H](C(=O)N1CCC[C@H]1C(=O)N(C)[C@H](C(=O)N(C)[C@H](C(=O)N(C)[C@@H](Cc1ccc(OC)cc1)C(=O)N(C)Cc1nccs1)C(C)C)C(C)C)C(C)C ({Oct7ynoyl(2R-Me)}-[NMeA][NMeV]P[NMeV][NMeV][NMeY](Me)-X1) | inactive | inactive | Activity [1]: Active; Activity [2]: Active; Activity (Papain (Carica papaya)): Active; Activity [3]: Active; Activity [4]: Active; Activity [5]: inactive
C#CCCCCCC(=O)N(C)[C@@H](C)C(=O)N(C)[C@H](C(=O)N1CCC[C@H]1C(=O)N(C)[C@H](C(=O)N(C)[C@H](C(=O)N(C)[C@@H](Cc1ccc(OC)cc1)C(=O)N1CCC[C@H]1c1nccs1)C(C)C)C(C)C)C(C)C ({Oct(7)ynoyl}-[NMeA][NMeV]P[NMeV][NMeV][NMeY](Me)-X2) | inactive | inactive | 
C#CCCCCCC(=O)N(C)[C@@H](C)C(=O)N(C)[C@H](C(=O)N1CCC[C@H]1C(=O)N(C)[C@H](C(=O)N(C)[C@H](C(=O)N(C)[C@@H](Cc1ccc(OC)cc1)C(=O)N(C)Cc1nccs1)C(C)C)C(C)C)C(C)C ({Oct(7)ynoyl}-[NMeA][NMeV]P[NMeV][NMeV][NMeY](Me)-X1) | inactive | inactive | 
C#CCCCC[C@@H](C)C(=O)N(C)[C@@H](C)C(=O)N(C)[C@H](C(=O)N(C)[C@H](C(=O)N(C)[C@H](C(=O)N(C)[C@H](C(=O)N1CCC[C@H]1c1nccs1)C(C)C)C(C)C)C(C)C)C(C)C [APRAMIDE G] ({Oct7ynoyl(2R-Me)}-[NMeA][NMeV][NMeV][NMeV][NMeV]-X2) |  |  | IC50 (KB): 0.033 mg/L (≈ 0.0398 µM); IC50 (LoVo): 0.011 mg/L (≈ 0.0133 µM)
C=CCCCC[C@@H](C)C(=O)N(C)[C@@H](C)C(=O)N(C)[C@H](C(=O)N1CCC[C@H]1C(=O)N(C)[C@H](C(=O)N(C)[C@H](C(=O)N(C)[C@@H](Cc1ccc(OC)cc1)C(=O)N1CCC[C@H]1c1nccs1)C(C)C)C(C)C)C(C)C ({Octanoyl(2R-Me,7,8-dehydro)}-[NMeA][NMeV]P[NMeV][NMeV][NMeY](Me)-X2) | inactive | inactive | 
